Measurements from paper PMC8945123 (ACS Omega, 2022).
Where “and” joins values, the source holds several entries; their conditions need not be identical. Equal values may be shown once. Entries after “also recorded” stand apart in the source; their conditions may differ. Read-outs that look alike come from different tables or passages of the source.

Columns and labels:
eeAChE = eeAChE (Electrophorus electricus, UniProt O42275); test: In vitro eeAChE inhibition, Ellman's method; format: biochemical; details: for IC50: mean ± SEM (n = 3)
Sequence of eeAChE (O42275 24-633): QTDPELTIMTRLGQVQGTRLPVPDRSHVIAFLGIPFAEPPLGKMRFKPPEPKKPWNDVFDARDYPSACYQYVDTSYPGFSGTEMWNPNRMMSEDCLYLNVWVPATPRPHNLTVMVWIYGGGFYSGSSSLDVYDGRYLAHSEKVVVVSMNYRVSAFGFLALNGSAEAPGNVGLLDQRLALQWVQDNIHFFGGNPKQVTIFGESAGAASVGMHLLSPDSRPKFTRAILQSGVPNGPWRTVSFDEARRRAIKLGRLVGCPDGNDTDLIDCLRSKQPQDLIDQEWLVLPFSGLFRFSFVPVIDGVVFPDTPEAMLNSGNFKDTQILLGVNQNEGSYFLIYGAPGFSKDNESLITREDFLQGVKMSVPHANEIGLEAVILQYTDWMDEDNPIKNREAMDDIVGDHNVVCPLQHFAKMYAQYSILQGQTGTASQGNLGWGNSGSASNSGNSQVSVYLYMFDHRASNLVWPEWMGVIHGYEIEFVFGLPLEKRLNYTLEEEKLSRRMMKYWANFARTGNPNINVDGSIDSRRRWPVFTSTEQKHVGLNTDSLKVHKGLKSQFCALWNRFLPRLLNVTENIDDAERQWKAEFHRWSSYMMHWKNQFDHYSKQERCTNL

eqBChE = eqBChE (Equus caballus, UniProt P81908); test: In vitro eqBChE inhibition, Ellman's method; format: biochemical
Sequence of eqBChE (P81908 whole entry): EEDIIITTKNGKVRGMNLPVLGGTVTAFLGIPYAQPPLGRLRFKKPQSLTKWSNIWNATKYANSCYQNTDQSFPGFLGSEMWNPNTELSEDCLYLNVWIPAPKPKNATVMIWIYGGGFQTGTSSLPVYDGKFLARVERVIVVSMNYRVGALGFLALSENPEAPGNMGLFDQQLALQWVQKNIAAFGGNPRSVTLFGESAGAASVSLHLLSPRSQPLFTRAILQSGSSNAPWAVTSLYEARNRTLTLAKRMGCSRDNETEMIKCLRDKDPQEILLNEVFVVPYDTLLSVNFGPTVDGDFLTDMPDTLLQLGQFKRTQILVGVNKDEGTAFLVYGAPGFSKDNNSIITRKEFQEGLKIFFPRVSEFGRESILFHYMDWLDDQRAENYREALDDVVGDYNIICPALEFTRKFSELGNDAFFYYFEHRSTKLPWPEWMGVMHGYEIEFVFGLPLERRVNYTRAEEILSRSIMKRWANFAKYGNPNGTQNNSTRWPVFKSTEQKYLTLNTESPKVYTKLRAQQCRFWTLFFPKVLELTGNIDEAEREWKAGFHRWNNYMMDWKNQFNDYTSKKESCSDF

hMAO-B = target: T1, hMAO-B (Homo sapiens, UniProt P27338); test: In vitro inhibition of recombinant human MAO-B, fluorometric; format: biochemical
T1 sequence (P27338 1-520): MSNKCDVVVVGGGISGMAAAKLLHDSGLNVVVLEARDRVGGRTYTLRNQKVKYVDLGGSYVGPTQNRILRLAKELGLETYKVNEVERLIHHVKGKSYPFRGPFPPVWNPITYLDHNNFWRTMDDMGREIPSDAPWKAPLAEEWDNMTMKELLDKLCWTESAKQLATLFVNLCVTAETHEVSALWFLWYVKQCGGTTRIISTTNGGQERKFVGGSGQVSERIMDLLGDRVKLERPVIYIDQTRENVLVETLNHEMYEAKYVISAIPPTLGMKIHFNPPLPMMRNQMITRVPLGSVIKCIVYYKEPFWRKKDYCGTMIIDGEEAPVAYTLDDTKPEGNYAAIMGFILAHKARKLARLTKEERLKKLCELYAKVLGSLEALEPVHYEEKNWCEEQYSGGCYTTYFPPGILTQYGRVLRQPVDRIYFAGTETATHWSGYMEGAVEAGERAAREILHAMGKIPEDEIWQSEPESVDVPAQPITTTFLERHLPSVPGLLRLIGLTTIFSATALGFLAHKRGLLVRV

hMAO-A = target: T2, hMAO-A (Homo sapiens, UniProt P21397); test: In vitro inhibition of recombinant human MAO-A, fluorometric; format: biochemical; details: for IC50 (μM) ± SEM hMAO-A: mean ± SEM (n = 3)
T2 sequence (P21397 1-527): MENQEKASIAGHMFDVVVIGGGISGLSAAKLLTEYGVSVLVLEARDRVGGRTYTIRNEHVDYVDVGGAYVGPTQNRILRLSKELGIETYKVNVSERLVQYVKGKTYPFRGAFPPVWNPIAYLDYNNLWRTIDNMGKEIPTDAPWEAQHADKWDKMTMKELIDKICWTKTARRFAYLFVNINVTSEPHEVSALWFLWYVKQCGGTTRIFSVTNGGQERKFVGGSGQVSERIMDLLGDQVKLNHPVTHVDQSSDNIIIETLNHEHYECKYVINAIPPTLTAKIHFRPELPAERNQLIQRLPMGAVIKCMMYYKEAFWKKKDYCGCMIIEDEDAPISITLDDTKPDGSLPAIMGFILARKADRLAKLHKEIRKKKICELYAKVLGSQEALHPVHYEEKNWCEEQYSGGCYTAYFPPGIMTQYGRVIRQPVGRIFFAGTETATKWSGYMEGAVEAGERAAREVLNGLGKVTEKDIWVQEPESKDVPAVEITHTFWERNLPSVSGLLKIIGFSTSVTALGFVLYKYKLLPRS

[1] = PAMPA-BBB permeation assay; details: prediction of BBB penetration from Pe
acetylcholinesterase = acetylcholinesterase (Electrophorus electricus, UniProt O42275); test: Kinetic analysis of AChE inhibition; format: biochemical
Sequence of acetylcholinesterase (O42275 24-633): as the sequence (O42275 24-633) above

animals = test: Acute oral toxicity in animals; format: in vivo; details: doses from 50 to 2000 mg/kg body weight, eight animals per group
[2] = Neurotoxicity MTT assay on neuroblastoma SH-SY5Y cells; format: cell-based; details: human

SMILES | SI = selectivity index = IC50 of eqBChE/IC50 of eeAChE (eeAChE) | IC50 (eqBChE) [nM] | IC50 (hMAO-B) [nM] | SI = selectivity index = IC50 of hMAO-A/IC50 of hMAO-B (hMAO-B) | IC50 (hMAO-A) [nM] | IC50 (eeAChE; IC50 (μM) ± SEM eeAChE) | prediction (PAMPA-BBB) (CNS+, CNS–) [1] | also measured
O=C1CC(c2ccccc2)CC2=C1C(c1c[nH]c3ccccc13)n1c(s/c(=C\c3c[nH]c4ccccc34)c1=O)=N2 (centres unmarked) [Compound 27] | 14.1 | 13700 ± 1210 | 470 ± 10 | 19.9 | 9360 ± 1010 |  |  | IC50 (eeAChE; read-out: IC50 (μM) ± SEM eeAChE): 0.97 ± 0.1 µM
COc1ccc(C2CC(=O)C3=C(C2)N=c2s/c(=C\c4c[nH]c5ccccc45)c(=O)n2C3c2c[nH]c3ccccc23)cc1 (centres unmarked) [Compound 28] | 11.8 | 10500 ± 1090 | 310 ± 10 | 119.2 | 36900 ± 1220 | 0.89 ± 0.1 µM |  | 
CCn1cc(C(=O)O)c(=O)c2cc(F)c(N3CCNC(C)C3)c(F)c21 (centres unmarked) [lomefloxacin] |  |  |  |  |  |  | CNS- (“CNS-” (prediction of low BBB permeation); Pe (10^–6 cm/s) < 1.78) | 
COc1ccc(C2CC(=O)C3=C(C2)N=c2s/c(=C\c4ccc(OCc5ccccc5)cc4)c(=O)n2C3c2c[nH]c3ccccc23)cc1 (centres unmarked) [Compound 33] | 1.3 | 1010 ± 60 | 670 ± 10 | 72.2 | 48400 ± 2280 | 0.79 ± 0.09 µM |  | 
CC1(C)CC(=O)C2=C(C1)N=c1s/c(=C\c3ccc(OCCNCCc4c[nH]c5ccccc45)cc3)c(=O)n1C2c1c[nH]c2ccccc12 (centres unmarked) [Compound 35] | 15.0 | 630 ± 70 | 330 ± 10 | 5.8 | 1930 ± 10 | 0.04 µM and 0.042 µM | CNS+ (‘CNS+’ (prediction of high BBB permeation); Pe (10^–6 cm/s) > 4.39) | Ki (acetylcholinesterase): 12 nM; type of inhibition (acetylcholinesterase; Lineweaver–Burke double reciprocal plot): mixed inhibition mode; also recorded: mixed-type inhibition; acute toxicity (survival, clinical signs) (animals): All animals were found alive; viability at 1 µM [2]: 98.9 ± 1.23%; viability at 10 µM [2]: 95.2 ± 1.54%; viability at 20 µM [2]: 94.9 ± 1.01%; viability at 40 µM [2]: 91.6 ± 1.59%
Cc1nnc2n1-c1ccc(Cl)cc1C(c1ccccc1)=NC2 [alprazolam] |  |  |  |  |  |  | CNS+ (‘CNS+’ (prediction of high BBB permeation); Pe (10^–6 cm/s) > 4.39) | 
NCCc1ccc(O)c(O)c1 [dopamine] |  |  |  |  |  |  | CNS- (“CNS-” (prediction of low BBB permeation); Pe (10^–6 cm/s) < 1.78) | 
O=C1CC(c2ccccc2)CC2=C1C(c1c[nH]c3ccccc13)n1c(s/c(=C\c3ccc(OCc4ccccc4)cc3)c1=O)=N2 (centres unmarked) [Compound 32] | 1.9 | 1700 ± 110 | 810 ± 10 | 13.9 | 11200 ± 1300 | 0.86 ± 0.14 µM |  | 
O=C1CCCC2=C1C(c1c[nH]c3ccccc13)n1c(s/c(=C\c3ccc(OCc4ccccc4)cc3)c1=O)=N2 (centres unmarked) [Compound 30] | 1.9 | 8970 ± 770 | 370 ± 10 | 1.3 | 480 ± 30 | 4.67 ± 0.29 µM |  | acute toxicity (survival, clinical signs) (animals): All animals were found alive
CC1(C)CC(=O)C2=C(C1)N=c1s/c(=C\c3c[nH]c4ccccc34)c(=O)n1C2c1c[nH]c2ccccc12 (centres unmarked) [Compound 26] | 3.1 | 19300 ± 1140 | 240 ± 10 | 2.4 | 570 ± 80 | 6.21 ± 0.16 µM |  | 
O=C1CCCC2=C1C(c1c[nH]c3ccccc13)n1c(s/c(=C\c3ccc(OCCNCCc4c[nH]c5ccccc45)cc3)c1=O)=N2 (centres unmarked) [Compound 34] | 3.7 | 440 ± 10 | 280 ± 10 | 5.3 | 1500 ± 10 | 0.12 ± 0.01 µM |  | 
COc1ccc(C2CC(=O)C3=C(C2)N=c2s/c(=C\c4ccc(OCCNCCc5c[nH]c6ccccc56)cc4)c(=O)n2C3c2c[nH]c3ccccc23)cc1 (centres unmarked) [Compound 37] | 14.2 | 980 ± 110 | 140 ± 10 |  |  | 0.07 µM and 0.069 µM | CNS+ (‘CNS+’ (prediction of high BBB permeation); Pe (10^–6 cm/s) > 4.39) | acute toxicity (survival, clinical signs) (animals): All animals were found alive; IC50 (μM) ± SEM hMAO-A (hMAO-A): not able to show MAO-A inhibition activity at tested concentration; viability at 1 µM [2]: 96.1 ± 0.98%; viability at 10 µM [2]: 92.1 ± 1.09%; viability at 20 µM [2]: 90.33 ± 0.83%; viability at 40 µM [2]: 88.2 ± 1.55%
CC1(C)CC(=O)C2=C(C1)N=c1s/c(=C\c3ccc(OCc4ccccc4)cc3)c(=O)n1C2c1c[nH]c2ccccc12 (centres unmarked) [Compound 31] | 3.7 | 13900 ± 990 | 380 ± 10 | 1.6 | 630 ± 40 | 3.71 ± 0.11 µM |  | 
CC(=O)[C@H]1CC[C@H]2[C@@H]3CCC4=CC(=O)CC[C@]4(C)[C@H]3CC[C@]12C [progesterone] |  |  |  |  |  |  | CNS+ (‘CNS+’ (prediction of high BBB permeation); Pe (10^–6 cm/s) > 4.39) | 
O=C1CC(c2ccccc2)CC2=C1C(c1c[nH]c3ccccc13)n1c(s/c(=C\c3ccc(OCCNCCc4c[nH]c5ccccc45)cc3)c1=O)=N2 (centres unmarked) [Compound 36] | 17.2 | 1390 ± 60 | 100 ± 10 |  |  | 0.081 ± 0.03 µM |  | IC50 (μM) ± SEM hMAO-A (hMAO-A): not able to show MAO-A inhibition activity at tested concentration
